Tests used:
[1] = tested on: patients with treatment-resistant major depressive disorder (TRD); assay: Phase 1/2 clinical trial of inhaled 5-MeO-DMT in TRD; details: for Patients with at least one ADR: Part A
Description: Patients were assigned to different groups. In the context of the present invention, the group who received a single, 12 mg dose and the group who underwent an intra-day individualized dosing regimen (IDR) that allowed for multiple, escalating doses (6 mg, 12 mg and 18 mg) within a single day, driven by the intensity of the patient-reported psychedelic experience are of interest.
The data gathered include the assessment of the treated patients against several scales including the Montgomery Åsberg Depression Rating Scale (MADRS) and the Brief Psychiatric Rating Scale (BPRS).
This trial was designed in two parts. Part A was an open-label, single-arm, single-dose Phase 1 trial with two dose levels (12 mg (n=4) and 18 mg (n=4)). […] The primary endpoint of Part B was to assess the effects on the severity of depression, as assessed by the proportion of patients in remission on day seven after dosing, defined as a MADRS total score of less than or equal to 10.

[2] = tested on: Escherichia coli WP2 uvrA pKM101; assay: Bacterial mutation test, Escherichia coli; assay type: cell-based; details: up to 5000 μg/plate, absence and presence of S-9
Description: These conditions included treatments at concentrations up to 5000 μg/plate (the maximum recommended concentration according to current regulatory guidelines), in the absence and in the presence of a rat liver metabolic activation system (S-9).

[3] = 12 mg n=4, 2 hours, baseline 16

COc1ccc2[nH]cc(CCN(C)C)c2c1 [5-MeO-DMT]
MADRS Concentration Difficulties improvement ([1]; 12 mg n=4, 2 hours): 9 points
MADRS Inability to Feel improvement ([1]; 12 mg n=4, 2 hours): 7 points
MADRS Inner Tension improvement ([1]; 12 mg n=4, 2 hours): 11 points
MADRS Lassitude improvement ([1]; 12 mg n=4, 2 hours): 6 points
MADRS Pessimistic Thoughts improvement ([1]; 12 mg n=4, 2 hours): 8 points
MADRS Pessimistic Thoughts percentage improvement ([1]; 12 mg n=4, 2 hours): 50.00%
MADRS Suicidal Thoughts improvement ([1]; 12 mg n=4, 2 hours): 5 points
MADRS Suicidal Thoughts aggregated score ([1]; 12 mg n=4, 2 hours, baseline 8): 3
MADRS Inner Tension aggregated score ([1]; 12 mg n=4, 2 hours, baseline 13): 2
MADRS Concentration Difficulties aggregated score [1, 3]: 7
MADRS Inability to Feel aggregated score [1, 3]: 9
MADRS Lassitude aggregated score [1, 3]: 10
MADRS Pessimistic Thoughts aggregated score [1, 3]: 8
BPRS Anxiety improvement ([1]; 12 mg n=4, 3 hours): 14 points
BPRS Anxiety percentage improvement ([1]; 12 mg n=4, 3 hours): 56.00%
BPRS Blunted Affect improvement ([1]; 12 mg n=4, 3 hours): 3 points
BPRS Emotional Withdrawal improvement ([1]; 12 mg n=4, 3 hours): 2 points
BPRS Guilt Feelings improvement ([1]; 12 mg n=4, 3 hours): 9 points
BPRS Guilt Feelings percentage improvement ([1]; 12 mg n=4, 3 hours): 50.00%
BPRS Tension improvement ([1]; 12 mg n=4, 3 hours): 5 points
BPRS Blunted Affect aggregated score ([1]; 12 mg n=4, 3 hours, baseline 11): 8
BPRS Emotional Withdrawal aggregated score ([1]; 12 mg n=4, 3 hours, baseline 13): 11
BPRS Tension aggregated score ([1]; 12 mg n=4, 3 hours, baseline 14): 9
BPRS Guilt Feelings aggregated score ([1]; 12 mg n=4, 3 hours, baseline 18): 9
BPRS Anxiety aggregated score ([1]; 12 mg n=4, 3 hours, baseline 25): 11
Patients maintaining remission ([1]; Day 7): 7/8
MADRS Concentration Difficulties improvement ([1]; IDR n=8, 2 hours): 19 points
MADRS Inability to Feel improvement ([1]; IDR n=8, 2 hours): 24 points
MADRS Inner Tension improvement ([1]; IDR n=8, 2 hours): 15 points
MADRS Lassitude improvement ([1]; IDR n=8, 2 hours): 17 points
MADRS Pessimistic Thoughts improvement ([1]; IDR n=8, 2 hours): 21 points
MADRS Pessimistic Thoughts percentage improvement ([1]; IDR n=8, 2 hours): 75.00%
MADRS Suicidal Thoughts improvement ([1]; IDR n=8, 2 hours): 8 points
MADRS Suicidal Thoughts aggregated score ([1]; IDR n=8, 2 hours, baseline 11): 3
MADRS Inner Tension aggregated score ([1]; IDR n=8, 2 hours, baseline 26): 11
MADRS Lassitude aggregated score ([1]; IDR n=8, 2 hours, baseline 27): 10
MADRS Pessimistic Thoughts aggregated score ([1]; IDR n=8, 2 hours, baseline 28): 7
MADRS Concentration Difficulties aggregated score ([1]; IDR n=8, 2 hours, baseline 30): 11
MADRS Inability to Feel aggregated score ([1]; IDR n=8, 2 hours, baseline 36): 12
BPRS Anxiety improvement ([1]; IDR n=8, 3 hours): 18 points
BPRS Blunted Affect improvement ([1]; IDR n=8, 3 hours): 4 points
BPRS Emotional Withdrawal improvement ([1]; IDR n=8, 3 hours): 5 points
BPRS Guilt Feelings improvement ([1]; IDR n=8, 3 hours): 20 points
BPRS Tension improvement ([1]; IDR n=8, 3 hours): 5 points
BPRS Emotional Withdrawal aggregated score ([1]; IDR n=8, 3 hours, baseline 13): 8
BPRS Blunted Affect aggregated score ([1]; IDR n=8, 3 hours, baseline 15): 11
BPRS Tension aggregated score ([1]; IDR n=8, 3 hours, baseline 16): 11
BPRS Guilt Feelings aggregated score ([1]; IDR n=8, 3 hours, baseline 34): 14
BPRS Anxiety aggregated score ([1]; IDR n=8, 3 hours, baseline 37): 19
Safety laboratory analyses, vital signs, psychiatric safety assessments, cognitive function ([1]; Part A and Part B): No clinically significant changes
Patients with at least one ADR ([1]; 12 mg): 3 of 4
Patients with at least one ADR ([1]; 18 mg): 3 of 4
Patients with MADRS remission ([1]; Part B, IDR n=8, day seven): 87.5%
Mean MADRS change from baseline, percent ([1]; Part B, IDR, day seven): 76%
Patients achieving remission ([1]; day 1): 8/8
Patients achieving remission ([1]; within 2 h after dosing): 5/8
Induction of mutation [2]: did not induce mutation

Reference: patent US20250221963A1 (GH RESEARCH IRELAND LIMITED, priority 2022, published 2025)
